Measurements as given in doi:10.1101/2020.08.28.272054v2 (biorxiv, 2021).

Key:
Test in all cases: ATPase activity, photometric phosphate release, Sf9 membranes
Format in all cases: biochemical
αCβ1 = αCβ1 (Oncopeltus fasciatus, UniProt A0A8S4MUF7)
αCβ2 = αCβ2 (Oncopeltus fasciatus, UniProt A0A8S4MUF7)
αCβ3 = αCβ3 (Oncopeltus fasciatus, UniProt A0A8S4MUF7)
Chain of αCβ3 (A0A8S4MUF7 1-1007): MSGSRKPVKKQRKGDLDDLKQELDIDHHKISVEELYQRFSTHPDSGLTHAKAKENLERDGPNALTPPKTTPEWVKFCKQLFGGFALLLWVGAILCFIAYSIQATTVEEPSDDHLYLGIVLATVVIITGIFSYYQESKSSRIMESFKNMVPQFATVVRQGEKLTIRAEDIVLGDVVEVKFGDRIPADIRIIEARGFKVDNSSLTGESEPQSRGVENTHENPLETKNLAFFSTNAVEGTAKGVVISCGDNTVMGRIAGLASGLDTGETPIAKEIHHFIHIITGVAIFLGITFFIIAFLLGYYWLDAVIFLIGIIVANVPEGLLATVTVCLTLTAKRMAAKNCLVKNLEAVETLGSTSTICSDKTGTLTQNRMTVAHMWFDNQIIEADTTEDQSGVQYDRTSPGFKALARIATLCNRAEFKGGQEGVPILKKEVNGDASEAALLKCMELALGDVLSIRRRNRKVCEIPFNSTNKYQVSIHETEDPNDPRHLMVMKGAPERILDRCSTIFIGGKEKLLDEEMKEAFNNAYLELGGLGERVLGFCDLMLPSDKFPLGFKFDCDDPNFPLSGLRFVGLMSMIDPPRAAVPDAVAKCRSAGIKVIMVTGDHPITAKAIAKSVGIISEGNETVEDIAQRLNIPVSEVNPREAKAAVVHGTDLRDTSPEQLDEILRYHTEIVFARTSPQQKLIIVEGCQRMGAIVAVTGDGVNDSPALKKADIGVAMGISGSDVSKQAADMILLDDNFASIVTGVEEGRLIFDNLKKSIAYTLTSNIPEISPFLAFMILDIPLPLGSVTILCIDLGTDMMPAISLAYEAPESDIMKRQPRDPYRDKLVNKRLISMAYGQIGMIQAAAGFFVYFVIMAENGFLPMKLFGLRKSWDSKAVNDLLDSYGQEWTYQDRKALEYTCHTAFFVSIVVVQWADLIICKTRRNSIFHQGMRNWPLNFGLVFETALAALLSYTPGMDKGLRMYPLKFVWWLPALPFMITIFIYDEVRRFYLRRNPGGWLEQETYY
Chain of αCβ3 (A0A8S4MV14 1-314 partner): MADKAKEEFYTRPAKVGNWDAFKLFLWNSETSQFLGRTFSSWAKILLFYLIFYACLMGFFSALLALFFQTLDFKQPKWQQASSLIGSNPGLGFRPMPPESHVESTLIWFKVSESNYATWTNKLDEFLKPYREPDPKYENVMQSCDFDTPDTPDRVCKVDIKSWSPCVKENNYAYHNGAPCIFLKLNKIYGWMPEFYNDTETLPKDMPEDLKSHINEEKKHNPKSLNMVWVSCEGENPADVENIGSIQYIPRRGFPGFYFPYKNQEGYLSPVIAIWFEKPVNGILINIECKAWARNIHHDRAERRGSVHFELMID

Chain of αCβ1 (A0A8S4MUF7 1-1007): as the sequence (A0A8S4MUF7 1-1007) above
Chain of αCβ1 (A0A8S4MTC7 1-330 partner): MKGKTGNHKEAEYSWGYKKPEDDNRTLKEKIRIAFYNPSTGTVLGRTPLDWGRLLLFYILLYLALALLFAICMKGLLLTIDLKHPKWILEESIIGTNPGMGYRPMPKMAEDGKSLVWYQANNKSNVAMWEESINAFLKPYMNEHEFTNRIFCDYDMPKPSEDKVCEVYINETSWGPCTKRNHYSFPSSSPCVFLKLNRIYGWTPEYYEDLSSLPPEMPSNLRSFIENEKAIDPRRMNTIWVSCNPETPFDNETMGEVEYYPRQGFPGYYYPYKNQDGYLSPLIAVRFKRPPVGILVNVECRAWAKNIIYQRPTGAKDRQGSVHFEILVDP
Chain of αCβ2 (A0A8S4MUF7 1-1007): as the sequence (A0A8S4MUF7 1-1007) above
Chain of αCβ2 (A0A8S4MTQ8 1-322 partner): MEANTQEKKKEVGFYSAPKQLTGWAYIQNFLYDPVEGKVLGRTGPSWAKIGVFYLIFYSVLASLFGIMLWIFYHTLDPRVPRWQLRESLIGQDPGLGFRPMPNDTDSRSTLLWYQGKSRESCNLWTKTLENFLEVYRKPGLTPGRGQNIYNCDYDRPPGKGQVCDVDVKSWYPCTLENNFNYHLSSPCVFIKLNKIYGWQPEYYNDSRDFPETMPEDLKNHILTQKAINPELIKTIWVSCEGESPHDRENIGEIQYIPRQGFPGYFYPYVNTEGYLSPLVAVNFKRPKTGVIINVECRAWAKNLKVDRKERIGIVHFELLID

## C[C@@H]1O[C@@H](O[C@H]2C[C@@H](O)[C@]3(CO)[C@H]4[C@H](O)C[C@]5(C)[C@@H](C6=CC(=O)OC6)CC[C@]5(O)[C@@H]4CC[C@]3(O)C2)[C@H](O)[C@H](O)[C@H]1O [ouabain]
αCβ1
  IC50: 427 µM
αCβ2
  IC50: 737 µM
αCβ3
  IC50: 758 µM
